Data: ChEMBL document CHEMBL4325865, “Optimization of a fragment linking hit toward Dengue and Zika virus NS5 methyltransferases inhibitors” (Eur J Med Chem, 2019)
Calls of active or inactive are those of the source. No cut-off for these calls is given here.

How the values were obtained:
Nonstructural protein 5 = Nonstructural protein 5 (Dengue virus, UniProt V5TFZ2); assay: Inhibition of DENV3 2'-O-MTase assessed as reduction in [3H]AdoMet transfer on to capped GpppAC4 RNA after 30 mins by microbeta liquid scintillation counting method; set-up: species or system dengue virus type 3
Genome polyprotein [1] = target: Genome polyprotein (Zika virus, UniProt Q32ZE1); assay: Inhibition of ZIKV 2'-O-MTase assessed as reduction in [3H]AdoMet transfer on to capped GpppAC4 RNA after 30 mins by microbeta liquid scintillation counting method
Genome polyprotein [2] = target: Genome polyprotein (West Nile virus, UniProt P06935); assay: Inhibition of WNV 2'-O-MTase assessed as reduction in [3H]AdoMet transfer on to capped GpppAC4 RNA after 30 mins by microbeta liquid scintillation counting method
dengue virus type 2 = assay: Antiviral activity against DENV2 CNR 25679 infected in African green monkey Vero E6 cells assessed as reduction in viral replication up to 20 uM by RT-PCR analysis; format: functional, organism-based; conditions: Vero C1008
Vero C1008 = assay: Cytotoxicity against African green monkey Vero E6 cells up to 100 uM; format: cell-based; conditions: chlorocebus sabaeus
Zika virus = assay: Antiviral activity against ZIKV H/PF/2013 infected in African green monkey Vero E6 cells assessed as reduction in viral replication up to 20 uM by RT-PCR analysis; format: functional, organism-based; conditions: Vero C1008
[3] = Cytotoxicity against African green monkey Vero E6 cells; format: cell-based; conditions: chlorocebus sabaeus, Vero E6 cells (Vero C1008)

Nonstructural protein 5, sequence (V5TFZ2 whole entry): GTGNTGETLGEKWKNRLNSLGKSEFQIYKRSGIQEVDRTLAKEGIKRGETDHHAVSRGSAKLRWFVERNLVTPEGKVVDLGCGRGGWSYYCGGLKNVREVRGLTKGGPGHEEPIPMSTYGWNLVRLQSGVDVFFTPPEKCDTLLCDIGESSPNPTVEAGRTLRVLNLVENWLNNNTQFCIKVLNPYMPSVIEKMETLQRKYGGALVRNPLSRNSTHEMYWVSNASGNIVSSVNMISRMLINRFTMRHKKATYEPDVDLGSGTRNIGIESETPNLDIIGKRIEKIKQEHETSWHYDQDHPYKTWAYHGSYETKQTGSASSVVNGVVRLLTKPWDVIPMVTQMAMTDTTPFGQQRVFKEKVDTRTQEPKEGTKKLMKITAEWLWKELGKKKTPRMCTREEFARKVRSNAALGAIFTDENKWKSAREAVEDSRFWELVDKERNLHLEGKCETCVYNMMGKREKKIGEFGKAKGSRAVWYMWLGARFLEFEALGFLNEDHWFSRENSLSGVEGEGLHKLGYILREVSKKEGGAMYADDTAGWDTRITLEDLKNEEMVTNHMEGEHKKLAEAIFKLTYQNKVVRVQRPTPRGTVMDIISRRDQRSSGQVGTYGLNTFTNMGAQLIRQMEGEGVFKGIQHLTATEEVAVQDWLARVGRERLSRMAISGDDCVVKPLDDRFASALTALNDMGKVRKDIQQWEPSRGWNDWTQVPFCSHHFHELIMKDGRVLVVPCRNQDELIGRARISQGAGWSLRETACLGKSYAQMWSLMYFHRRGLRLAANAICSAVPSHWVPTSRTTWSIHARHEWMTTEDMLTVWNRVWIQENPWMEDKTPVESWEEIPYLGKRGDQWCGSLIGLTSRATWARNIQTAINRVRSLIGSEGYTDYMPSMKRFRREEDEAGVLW
Genome polyprotein (West Nile virus, UniProt P06935), sequence (P06935 2526-3430 limits assumed): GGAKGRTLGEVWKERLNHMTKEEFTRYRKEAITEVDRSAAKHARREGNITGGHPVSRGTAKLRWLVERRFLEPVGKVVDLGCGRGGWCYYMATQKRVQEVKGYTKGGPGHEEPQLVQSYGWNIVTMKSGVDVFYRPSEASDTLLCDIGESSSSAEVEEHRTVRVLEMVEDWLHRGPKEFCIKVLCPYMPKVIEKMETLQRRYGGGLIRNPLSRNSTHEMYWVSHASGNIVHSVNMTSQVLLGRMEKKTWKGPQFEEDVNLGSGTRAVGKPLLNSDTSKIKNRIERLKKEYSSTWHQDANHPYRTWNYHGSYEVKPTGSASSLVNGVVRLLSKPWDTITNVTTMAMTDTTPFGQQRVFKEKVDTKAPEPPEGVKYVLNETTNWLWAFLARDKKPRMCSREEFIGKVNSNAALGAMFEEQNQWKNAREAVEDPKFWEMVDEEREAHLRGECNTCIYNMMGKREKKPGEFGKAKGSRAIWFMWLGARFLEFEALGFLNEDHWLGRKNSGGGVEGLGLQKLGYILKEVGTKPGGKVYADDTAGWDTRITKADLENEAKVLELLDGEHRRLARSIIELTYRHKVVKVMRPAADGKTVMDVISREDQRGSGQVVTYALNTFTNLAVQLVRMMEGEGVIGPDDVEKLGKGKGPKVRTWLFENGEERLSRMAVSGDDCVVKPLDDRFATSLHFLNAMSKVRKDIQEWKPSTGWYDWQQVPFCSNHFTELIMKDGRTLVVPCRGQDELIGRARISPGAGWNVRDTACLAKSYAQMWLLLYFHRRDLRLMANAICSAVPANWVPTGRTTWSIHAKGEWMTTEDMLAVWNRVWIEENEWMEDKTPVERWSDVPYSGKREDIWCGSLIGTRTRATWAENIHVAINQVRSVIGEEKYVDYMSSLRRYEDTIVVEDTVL
Genome polyprotein (Zika virus, UniProt Q32ZE1), sequence (Q32ZE1 2517-3419 limits assumed): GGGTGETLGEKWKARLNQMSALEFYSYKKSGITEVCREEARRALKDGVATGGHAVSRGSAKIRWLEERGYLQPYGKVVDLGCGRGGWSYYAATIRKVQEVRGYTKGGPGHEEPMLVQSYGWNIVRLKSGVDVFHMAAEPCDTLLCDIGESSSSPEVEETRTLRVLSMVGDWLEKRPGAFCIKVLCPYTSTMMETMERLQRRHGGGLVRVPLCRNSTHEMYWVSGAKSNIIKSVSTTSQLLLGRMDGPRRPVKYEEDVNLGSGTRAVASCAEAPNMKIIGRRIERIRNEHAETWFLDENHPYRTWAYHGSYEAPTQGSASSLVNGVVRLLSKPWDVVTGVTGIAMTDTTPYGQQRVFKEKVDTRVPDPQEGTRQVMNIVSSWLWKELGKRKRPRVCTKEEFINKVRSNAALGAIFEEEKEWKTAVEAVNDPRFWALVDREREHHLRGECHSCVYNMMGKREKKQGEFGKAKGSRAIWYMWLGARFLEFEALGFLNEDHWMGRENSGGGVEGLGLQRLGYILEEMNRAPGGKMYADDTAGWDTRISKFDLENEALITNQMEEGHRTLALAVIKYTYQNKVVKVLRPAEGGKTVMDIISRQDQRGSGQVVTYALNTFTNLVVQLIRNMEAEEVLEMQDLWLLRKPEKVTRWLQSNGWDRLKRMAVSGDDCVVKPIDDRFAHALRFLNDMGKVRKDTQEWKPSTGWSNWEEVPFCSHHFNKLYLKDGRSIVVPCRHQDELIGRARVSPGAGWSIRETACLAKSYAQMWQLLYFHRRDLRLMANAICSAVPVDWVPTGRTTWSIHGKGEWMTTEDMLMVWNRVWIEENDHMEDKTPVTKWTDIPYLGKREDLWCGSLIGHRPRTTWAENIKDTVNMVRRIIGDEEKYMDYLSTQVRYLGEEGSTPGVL

Row | Compound | IC50 (Nonstructural protein 5) | IC50 (Genome polyprotein [1]) | IC50 (Genome polyprotein [2]) | Activity (dengue virus type 2) | Activity (Vero C1008) | Activity (Zika virus) | CC50 [3]
1 | COC(=O)CCCNS(=O)(=O)c1cccc(NC(=O)Nc2ccc(C(F)(F)F)cc2[N+](=O)[O-])c1 | 400 µM | 400 µM |  |  |  |  | 
2 | Nc1cc(C(F)(F)F)ccc1NC(=O)Nc1ccc(S(=O)(=O)Nc2ccc(C(=O)O)cc2)cc1 | 110 µM | 67 µM | 51 to 299 µM |  |  |  | 
3 | CN1CCC(CNS(=O)(=O)c2ccc(NC(=O)Nc3ccc(C(F)(F)F)cc3N)cc2)C1 (stereo not drawn) | 400 µM | 400 µM |  |  |  |  | 
4 | Nc1cc(C(F)(F)F)ccc1NC(=O)Nc1cccc(S(=O)(=O)NCCCC(=O)O)c1 | 342 µM | 132 µM |  |  |  |  | 
5 | Nc1cc(Cl)ccc1NC(=O)Nc1ccc(S(=O)(=O)Oc2ccc(C(=O)O)cc2)cc1 | 368 µM | 31 µM | 51 to 299 µM |  |  |  | 
6 | Nc1cc(C(F)(F)F)ccc1NC(=O)Nc1cccc(S(=O)(=O)Nc2ccc(CC(=O)O)cc2)c1 | 144 µM | 135 µM |  |  |  |  | 
7 | Nc1cc(C(F)(F)F)ccc1NC(=O)Nc1cccc(S(=O)(=O)NCc2cccc(C(=O)O)c2)c1 | 304 µM | 95 µM |  |  |  |  | 
8 | Nc1cc(Cl)ccc1NC(=O)Nc1cccc(S(=O)(=O)Nc2ccc(C(=O)O)cc2)c1 | 452 µM | 221 µM | 51 to 299 µM |  |  |  | 
9 | Nc1cc(C(F)(F)F)ccc1NC(=O)Nc1ccc(S(=O)(=O)Oc2cccc(CC(=O)Oc3cccc(CC(=O)O)c3)c2)cc1 | 24 µM | 19 µM |  | inactive | Non-Toxic | inactive | 
10 | O=C(Nc1ccc(S(=O)(=O)NCc2cccc(C(=O)O)c2)cc1)Nc1ccc(C(F)(F)F)cc1[N+](=O)[O-] | 145 µM | 83 µM |  | inactive |  | inactive | 70 µM
11 | Nc1cc(Cl)ccc1NC(=O)Nc1ccc(S(=O)(=O)Nc2ccc(C(=O)O)cc2)cc1 | 435 µM | 87 µM | 51 to 299 µM |  |  |  | 
12 | Nc1cc(C(F)(F)F)ccc1NC(=O)Nc1cccc(S(=O)(=O)Nc2ccc(C(=O)O)cc2)c1 | 91 µM | 24 µM | 51 to 299 µM |  |  |  | 
13 | Nc1cc(C(F)(F)F)ccc1NC(=O)Nc1ccc(S(=O)(=O)Oc2cccc(CC(=O)O)c2)cc1 | 276 µM | 111 µM |  |  |  |  | 
14 | O=C(O)Cc1ccc(NS(=O)(=O)c2cccc(NC(=O)Nc3ccc(C(F)(F)F)cc3[N+](=O)[O-])c2)cc1 | 181 µM | 185 µM |  |  |  |  | 
15 | Nc1cc(Cl)ccc1NC(=O)Nc1cccc(S(=O)(=O)Oc2ccc(C(=O)O)cc2)c1 | 369 µM | 33 µM | 51 to 299 µM |  |  |  | 
16 | O=C(Nc1cccc(S(=O)(=O)NCc2cccc(C(=O)O)c2)c1)Nc1ccc(C(F)(F)F)cc1[N+](=O)[O-] | 400 µM | 136 µM |  |  |  |  | 
17 | Nc1cc(C(F)(F)F)ccc1NC(=O)Nc1cccc(S(=O)(=O)NCc2ccc(C(=O)O)cc2)c1 | 366 µM | 122 µM |  |  |  |  | 
18 | O=C(O)Cc1cccc(OS(=O)(=O)c2ccc(NC(=O)Nc3ccc(C(F)(F)F)cc3[N+](=O)[O-])cc2)c1 | 26 µM | 28 µM |  | inactive |  | inactive | 37.5 µM
19 | Nc1cc(C(F)(F)F)ccc1NC(=O)Nc1ccc(S(=O)(=O)NCc2cccc(C(=O)O)c2)cc1 | 174 µM | 61 µM |  | inactive | Non-Toxic | inactive | 
20 | CN1CCC(CNS(=O)(=O)c2ccc(NC(=O)Nc3ccc(C(F)(F)F)cc3[N+](=O)[O-])cc2)C1 (stereo not drawn) | 400 µM | 400 µM |  |  |  |  | 
